Assay results taken from patent US11191850B2, “Molecular probes for detection and imaging of pancreatic cancer” (Portland State University, priority 2016, dated 2021).
“Also recorded” adds a separate entry of the source. Like-named read-outs stand apart in the source and are kept apart here.

Assays:
healthy CD-1 mice [1] = conditions: mouse, in vivo, iv
Description: (§3) Animals. Approval for the use of all animals in this study was obtained from the Institutional Animal Care and Use Committee (IACUC) at Oregon Health and Science University (OHSU). Male CD-1 mice weighing 22-24 g were purchased from Charles River Laboratories (Wilmington, MA). […] All animals were placed on 5V75 chlorophyll free diet from TestDiet (St. Louis, Mo.) 1 week prior to any imaging studies. Prior to surgery, mice were anaesthetized with 100 mg/kg ketamine and 10 mg/kg xylazine (Patterson Veterinary, Devens, Mass.). The peritoneal cavity was surgically exposed by removal of overlaying skin and muscle tissue to image fluorophore biodistribution following intravenous injection.
(§4) Intraoperative fluorescence imaging system. In vivo murine biodistribution images and macroscopic images of resected tissues were acquired using a custom-built small animal imaging system capable of real time color and fluorescence imaging. The imaging system consists of a QImaging EXi Blue monochrome camera (Surrey, British Columbia, Calif.) for fluorescence detection with a removable Bayer filter for collecting co-registered color and fluorescence images. A PhotoFluor II light source (89 North, Burlington, Vt.) was focused onto the surgical field through a liquid light guide and used unfiltered for white light illumination. […] All filters were obtained from Chroma technology (Bellows Falls, Vt.). Camera exposure times ranged from 50 to 200 ms for fluorescence image collection.
(§5) Systemic administration of fluorescent compounds. […] Fluorophores were diluted in PBS. For comparison with previous studies, 120 nmol Methylene Blue was injected systemically. Mice were administered blank PBS for control images (n=3 mice per group, 5 groups).
(§6) In vivo biodistribution imaging. […] The peritoneal cavity was exposed and images were collected so that the bladder, adipose tissue, intestine, kidney, liver, muscle, pancreas, spleen, and stomach were visible within the field of view. For initial biodistribution studies images were collected immediately after injection and at 5, 15, 30, 60, 120, and 240 min following injection. […] Vehicle injected control animals were imaged on the same time course as fluorophore injected animals for initial testing or immediately following injection only for studies involving MB or PDAC tumor bearing mice to assess tissue autofluorescence for comparison to injected animals.
(§7) Fluorophore biodistribution kinetics were measured using region of interest analysis on images collected of the peritoneal cavity. Mean fluorescence intensities in each organ or tissue type were measured from images collected at each time point. All intensities were normalized to the muscle intensity at that time point by dividing by the measured muscle intensity. Using the normalized fluorescence intensities for each organ or tissue type, mean intensities were calculated for each group.
(§8) Upon completion of initial biodistribution studies, animals were euthanized and their organs were resected.

healthy CD-1 mice [2] = assay: In vivo biodistribution imaging after systemic administration; conditions: for pancreas penetration / specificity: normal pancreas, systemic administration; for clearance route and rate: 100 nmol i.v. (MB 120 nmol); for organ accumulation (in vivo biodistribution): 100 nmol i.v., 4 h distribution phase
Description: as §3, §4, §5, §6, §7, §8

[3] = UV-Vis absorption and fluorescence spectroscopy; type: physicochemical; set-up: Brightness: unit not given here; conditions: for pH and solvent sensitivity of UV and fluorescence spectra: 10-15 μM, aqueous 10% DMSO with HCl, NaOH or pH 7.4 buffer, various solvents; for Extinction coefficient / λmax abs: 10% DMSO
Text: UV-Vis absorption and fluorescence spectroscopy. UV-Vis spectra were collected with a Cary 50 UV-Vis spectrophotometer at room temperature, using a 1-cm quartz cuvette. Fluorescence spectra were collected on a Cary Eclipse fluorescence spectrophotometer (Agilent Technologies). All absorbance spectra were reference corrected. Fluorescence spectra were corrected for the wavelength dependent response of the R928 photomultiplier tube using a manufacturer generated correction file. Quantum yields are reported as the average of multiple measurements using multiple references. Excitation emission matrices (EEMs) were collected over various spectral regions, using 5-nm step sizes for emission and 10-nm step sizes for excitation. The band pass for excitation and emission was 5 to 10 nm.
(§1) Probes 1-13 were screened for pH and solvent sensitivity. Solvent sensitivity or dependence is at least partially attributable to differences in the equilibria between tautomeric forms of the compounds in the various solvents evaluated. The fluorophore concentrations ranged from 10-15 μM. Aqueous solutions contained 10% DMSO and 12.5 mM HCl, 12.5 mM NaOH, or pH 7.4 phosphate buffer.

[4] = pKa of ionizable fluorophores (pH sensitivity screening); type: physicochemical; conditions: aqueous solutions with 10% DMSO; Table 5
Description: as §1

Capan-1 cells [5] = assay: Cell viability by CellTiter-Blue assay; type: cell-based, human; conditions: Capan-1, 24 h incubation, read-out: IC50 (cytotoxicity, cell viability)
Description: (§2) Cell culture. The human PDAC cell line Capan-1 was obtained from Dr. Rosalie Sears' laboratory and maintained in RPMI medium (Gibco) in a humid atmosphere at 37° C. with 5% CO2. All media were supplemented with 10% (v/v) fetal bovine serum (FBS), and 1% (v/v) penicillin/streptomycin. The cell viability was determined by Cell Titer-Blue® assay (Promega Corporation). Monolayers of 10^4 Capan-1 cells were seeded in triplicate in 96 well plates and incubated with decreasing concentration from 100 μM of each compound in growth media containing 10% FBS. After 24 h incubation time, 20 μL of CellTiter-Blue® reagent was added into each well, and culture cells were incubated for additional 2 h. Fluorescence intensity in each well was recorded at 560/590 nm in a SpectraMax® M5 Microplate Reader (Molecular Devices, LLC). The half maximal inhibitory concentration (IC50) of these three compounds were determined from interpolating values in the graph (% cell viability vs. fluorophore concentration). For comparison of cellular uptake rate in Capan-1 cells, absorbance of media was measured as background, and absorbance of supernatant was obtained to determine the cellular uptake by using absorbance of 10 μM fluorophore in cell free media as standard reference.
In vitro cell viability was assessed for compounds 2, 12 and 13 in a representative PDAC cell line, Capan-1. […]

Capan-1 cells [6] = assay: In vitro time-dependent fluorophore uptake; type: cell-based, human; conditions: Capan-1, 10 μM
Description: as §2
In vitro time-dependent fluorophore uptake was also investigated in Capan-1 cells. […]

Capan-1 cells [7] = assay: Subcellular localization by live cell imaging with organelle trackers; type: cell-based, human; conditions: Capan-1, 0.5 μM, 1 h incubation
Description: In vitro live cell imaging. Monolayers of 10^4 Capan-1 cells were seeded in triplicate in 8 well plates and incubated for 24 h in growth media containing 10% FBS and allowed to attach. For subcellular colocalization experiments, media was extracted and cells were washed with PBS, and phenol red-free growth medium was added to each well. Organelle trackers were added to each well, and incubated with the compound (final concentration 0.5 μM) of interest for 1 h. Cells were then washed with PBS and then fixed with 2% paraformaldehyde (PFA). Fluorescence microscopy was carried out using a Zeiss inverted microscope with an Axioscan fluorescence camera for imaging. Final concentration of organelle trackers used in this experiments, DAPI (4,6-diamidino-2-phenylindole) 0.5 μM, MitoTracker® Green (benzoxazolium 2-[3-[5,6-dichloro-1,3-bis[[4-(chloromethyl)-phenyl]methyl]-1,3-dihydro-2H-benzimidazol-2-ylidene]-1-propenyl]-3-methyl-chloride 201860-17-5v, ThermoFisher Scientific) 0.5 μM, and ER-Tracker™ Green (BODIPY® FL dye and glibenclamide; ThermoFisher Scientific) 1 μM.
The subcellular localization of 2, 12 and 13 was investigated in Capan-1 cells after 1 h incubation time. […] FIGS. 6A, 7A, and 8A show the red fluorescence of the three compounds, respectively, as well as blue fluorescence with DAPI (4,6-diamidino-2-phenylindole) FIGS. 6C, 7C, 8C) and green fluorescence with organelle-specific fluorescent probes—ER-Tracker™ Green (BODIPY® FL dye and glibenclamide; ThermoFisher Scientific) (FIGS. 6E, 7E, 8E) and MitoTracker® Green (benzoxazolium 2-[3-[5,6-dichloro-1,3-bis[[4-(chloromethyl)-phenyl]methyl]-1,3-dihydro-2H-benzimidazol-2-ylidene]-1-propenyl]-3-methyl-chloride201860-17-5v; ThermoFisher Scientific) (FIGS. 6G, 7G, 8G). Also shown are composite overlays of (i) phase contrast+compound fluorescence (FIGS. 6B, 7B, 8B), (ii) DAPI+compound fluorescence (FIGS. 6D, 7D, 8D), (iii) DAPI+ER-Tracker™ Green+compound fluorescence (FIGS. 6F, 7F, 8F), and (iv) DAPI+MitoTracker® Green+compound fluorescence (FIGS. 6H, 7H, 8H).

[8] = basic solution pH 12.1, NaOH, 15 μM
[9] = conjugate acid, acidic solution pH 1.9, HCl, 15 μM
[10] = pH 7.4 buffer, excited at 630 nm
[11] = pH 7.4 buffer, seminaphthorhodamines
[12] = pH 7.4 phosphate buffer, seminaphthorhodamines

Q: What does the source list for `CN(C)c1ccc2nc3ccc(=[N+](C)C)cc-3sc2c1` [MB, methylene blue, reference compound]?
A: clearance route and rate (healthy CD-1 mice [1]): preferentially and rapidly cleared through the renal system; pancreas penetration / specificity (healthy CD-1 mice [2]): poor penetration into normal pancreas tissue; also recorded: diminished pancreas accumulation

Q: For `COC(=O)c1ccccc1-c1c2ccc(=O)cc-2oc2c1ccc1cccc(N(C)C)c12` [Compound 8, methyl 2-(1-(dimethylamino)-10-oxo-10H-benzo[c]xanthen-7-yl)benzoate], which “pH and solvent sensitivity of UV and fluorescence spectra” value (shortened to “pH and solvent sensitivity”) [3] is on record?
A: Its value is “not affected by either solvent changes or by solution pH values above 2”.

Q: What about the Stokes shift ([3]; basic solution pH 12.1, NaOH) of the same compound?
A: The Stokes shift was 21 nm.

Q: And the λmax em ([3]; basic solution pH 12.1, NaOH)?
A: The λmax em was 530 nm.

Q: What about the Extinction coefficient [3, 8] of the same compound?
A: Its Extinction coefficient is 8834 M⁻¹ cm⁻¹.

Q: What about the λmax abs [3, 8] of the same compound?
A: The λmax abs was 530 nm.

Q: What about the Extinction coefficient [3, 9] of the same compound?
A: Its Extinction coefficient is 10132 M⁻¹ cm⁻¹.

Q: And the λmax abs [3, 9]?
A: The λmax abs was 480 nm.

Q: What about the Stokes shift ([3]; conjugate acid, pH 1.9, HCl) of the same compound?
A: Its Stokes shift is 100 nm.

Q: What about the λmax em ([3]; conjugate acid, pH 1.9, HCl) of the same compound?
A: Its λmax em is 580 nm.

Q: What about the pKa [4] of the same compound?
A: The pKa was 4.36 +/− 0.04.

Q: For `COC(=O)c1ccccc1C1=c2cc3c4c(c2Oc2c1ccc1cccc(N)c21)CCC[N+]=4CCC3` [Compound 13, 15-amino-9-(2-(methoxycarbonyl)phenyl)-1,2,3,5,6,7-hexahydrobenzo[7,8]chromeno[2,3-f]pyrido[3,2,1-ij]quinolin-4-ium chloride], which “pH and solvent sensitivity” value [3] is on record?
A: The value was “not pH dependent, but were modestly solvent sensitive”.

Q: And the Quantum yield [3, 10]?
A: The Quantum yield was 0.66%.

Q: And the λmax em [3, 10]?
A: The λmax em was 740 nm.

Q: And the Brightness [3, 11]?
A: The Brightness was 85.

Q: What about the Stokes shift [3, 11] of the same compound?
A: Its Stokes shift is 139 nm.

Q: What about the Extinction coefficient [3, 12] of the same compound?
A: The Extinction coefficient was 12808 M⁻¹ cm⁻¹.

Q: And the λmax abs [3, 12]?
A: The λmax abs was 601 nm.

Q: And the IC50 (Capan-1 cells [5])?
A: The IC50 was 26.1 µM.

Q: And the “fluorophore uptake within 30 min of application (ranking)” value (Capan-1 cells [6])?
A: Its value is “greatest fluorophore uptake”.

Q: What about the “site of intracellular localization” value (Capan-1 cells [7]) of the same compound?
A: Its value is “extensive accumulation in the mitochondria”.

Q: And the “clearance route and rate” value (healthy CD-1 mice [2])?
A: Its value is “cleared more slowly than compound 2”.

Q: And the “organ accumulation (in vivo biodistribution)” value (healthy CD-1 mice [2])?
A: Its value is “accumulated largely in the kidneys”.

Q: And the “pancreas penetration / specificity” value (healthy CD-1 mice [2])?
A: Its value is “diminished pancreas accumulation”.

Q: Which “pH and solvent sensitivity” value [3] does the source give for `COC(=O)c1ccccc1-c1c2ccc(=O)cc-2oc2c1ccc1cccc(OC)c12` [Compound 2] here?
A: Its value is “not affected by either solvent changes or by solution pH values above 2”.

Q: And the Extinction coefficient ([3]; pH 7.4 phosphate buffer, methyl ether derivatives)?
A: The Extinction coefficient was 15,610 M^−1 · cm^−1.

Q: And the “fluorophore uptake within 30 min of application (ranking)” value (Capan-1 cells [6])?
A: Its value is “the lowest”.

Q: What about the “site of intracellular localization” value (Capan-1 cells [7]) of the same compound?
A: The value was “within vesicular structures”.

Q: What about the “clearance route and rate” value (healthy CD-1 mice [2]) of the same compound?
A: Its value is “significant renal clearance; also recorded: faster renal clearance than compounds 12 and 13”.

Q: And the “organ accumulation (in vivo biodistribution)” value (healthy CD-1 mice [2])?
A: The value was “preferentially accumulated in the pancreas, intestine and bladder”.

Q: What about the “pancreas penetration / specificity” value (healthy CD-1 mice [2]) of the same compound?
A: Its value is “improved pancreas specificity”.
